Laboratory results taken from ChEMBL document CHEMBL5625165, “Nine-valent oleanolic acid conjugates as potent inhibitors blocking the entry of influenza A virus” (Eur J Med Chem, 2023).
Calls of active or inactive are those of the source. The rule behind the calls is not given here.

Tests used:
Influenza A virus [1] = assay: Antiviral activity against influenza A virus B/Sichuan/531/2018 (Victoria) infected in MDCK cells assessed as inhibition of viral growth; assay type: functional, organism-based
[2] = Selectivity index, ratio of CC50 for cytotoxicity against dog MDCK cells assessed as reduction in cell viability to IC50 for antiviral activity against influenza A virus B/Sichuan/531/2018 (Victoria) infected in MDCK cells assessed as inhibition of viral growth; assay type: toxicity, cell-based; conditions: read-out: Ratio CC50/IC50
Influenza A virus [3] = assay: Antiviral activity against influenza A virus A/WSN/33(H1N1) infected in MDCK cells assessed as inhibition of viral-induced cytopathic effect incubated for 48 hrs by microscopic analysis; assay type: functional, organism-based
Influenza A virus [4] = assay: Antiviral activity against influenza A virus A/WSN/33(H1N1) infected in MDCK cells assessed as inhibition of virus-induced cytopathic effect at 30 uM incubated for 48 hrs by microscopic analysis; assay type: functional, organism-based
Influenza A virus [5] = assay: Antiviral activity against influenza A virus A/WSN/33(H1N1) infected in MDCK cells assessed as reduction in M2 expression measured upto 2 hrs by time of addition assay; assay type: functional; set-up: scale not given: the % may be the effect or the level left
Erythrocyte [6] = assay: Inhibition of hemagglutination in chicken RBC cells infected with Influenza A virus A/WSN/33 (H1N1) assessed as reduction in virus-induced agglutination of erythrocytes at 0.24 to 15 uM incubated for 24 mins; assay type: functional, cell-based; conditions: Gallus gallus, dose 0.24-15 µM
[7] = Cytotoxicity against dog MDCK cells assessed as cell viability at 30 uM incubated for 48 hrs by celltiter-glo assay; assay type: toxicity, cell-based, Canis lupus familiaris; conditions: read-out: Activity
[8] = Selectivity index, ratio of CC50 for cytotoxicity against dog MDCK cells assessed as reduction in cell viability to IC50 for antiviral activity against influenza A virus A/WSN/33(H1N1) infected in MDCK cells assessed as inhibition of viral-induced cytopathic effect; assay type: toxicity, cell-based; conditions: read-out: Ratio CC50/IC50
[9] = Binding affinity to influenza A virus H1N1 (A/michigan/45/2015) assessed as dissociation constant by SPR analysis
[10] = Cytotoxicity against dog MDCK cells assessed as reduction in cell viability incubated for 48 hrs by celltiter-glo assay; assay type: toxicity, cell-based, Canis lupus familiaris
Influenza A virus [11] = assay: Antiviral activity against influenza A virus A/WSN/33(H1N1) infected in MDCK cells assessed as inhibition of viral growth at 30 uM incubated for 48 hrs by microscopic analysis; assay type: functional; set-up: scale not given: the % may be the effect or the level left
[12] = Selectivity index, ratio of CC50 for cytotoxicity against dog MDCK cells assessed as reduction in cell viability to IC50 for antiviral activity against influenza A virus B/Darwin/58/2019 (Yamagata) infected in MDCK cells assessed as inhibition of viral growth; assay type: toxicity, cell-based; conditions: read-out: Ratio CC50/IC50
Erythrocyte [13] = assay: Hemolytic activity in rabbit RBC assessed as hemolysis at 300 uM incubated for 2 hr by spectrophotometry analysis; assay type: toxicity, cell-based, Oryctolagus cuniculus
Influenza A virus [14] = assay: Antiviral activity against influenza A virus B/Darwin/58/2019 (Yamagata) infected in MDCK cells assessed as inhibition of viral growth; assay type: functional, organism-based

SMILES | IC50 (Influenza A virus [1]) | selectivity ratio [2] | IC50 (Influenza A virus [3]) | Activity (Influenza A virus [4]) | Activity (Influenza A virus [5]) | inhibition (Erythrocyte [6]) | viability at 48 h, 30 µM [7] | selectivity ratio [8] | Kd [9] | CC50 at 48 h [10] | Activity (Influenza A virus [11]) | selectivity ratio [12] | Activity (Erythrocyte [13]) | IC50 (Influenza A virus [14])
CC1(C)CC[C@]2(C(=O)NCCOCCOCCOCCn3cc(COc4cc(C(=O)NCCOCCOCCOCCn5cc(COc6cc(OCc7cn(CCOCCOCCOCCNC(=O)c8cc(OCc9cn(CCOCCOCCOCCNC(=O)[C@]%10%11CCC(C)(C)C[C@H]%10C%10=CC[C@@H]%12[C@@]%13(C)CC[C@H](O)C(C)(C)[C@@H]%13CC[C@@]%12(C)[C@]%10(C)CC%11)nn9)c(OCc9cn(CCOCCOCCOCCNC(=O)[C@]%10%11CCC(C)(C)C[C@H]%10C%10=CC[C@@H]%12[C@@]%13(C)CC[C@H](O)C(C)(C)[C@@H]%13CC[C@@]%12(C)[C@]%10(C)CC%11)nn9)c(OCc9cn(CCOCCOCCOCCNC(=O)[C@]%10%11CCC(C)(C)C[C@H]%10C%10=CC[C@@H]%12[C@@]%13(C)CC[C@H](O)C(C)(C)[C@@H]%13CC[C@@]%12(C)[C@]%10(C)CC%11)nn9)c8)nn7)cc(OCc7cn(CCOCCOCCOCCNC(=O)c8cc(OCc9cn(CCOCCOCCOCCNC(=O)[C@]%10%11CCC(C)(C)C[C@H]%10C%10=CC[C@@H]%12[C@@]%13(C)CC[C@H](O)C(C)(C)[C@@H]%13CC[C@@]%12(C)[C@]%10(C)CC%11)nn9)c(OCc9cn(CCOCCOCCOCCNC(=O)[C@]%10%11CCC(C)(C)C[C@H]%10C%10=CC[C@@H]%12[C@@]%13(C)CC[C@H](O)C(C)(C)[C@@H]%13CC[C@@]%12(C)[C@]%10(C)CC%11)nn9)c(OCc9cn(CCOCCOCCOCCNC(=O)[C@]%10%11CCC(C)(C)C[C@H]%10C%10=CC[C@@H]%12[C@@]%13(C)CC[C@H](O)C(C)(C)[C@@H]%13CC[C@@]%12(C)[C@]%10(C)CC%11)nn9)c8)nn7)c6)nn5)cc(OCc5cn(CCOCCOCCOCCNC(=O)[C@]67CCC(C)(C)C[C@H]6C6=CC[C@@H]8[C@@]9(C)CC[C@H](O)C(C)(C)[C@@H]9CC[C@@]8(C)[C@]6(C)CC7)nn5)c4OCc4cn(CCOCCOCCOCCNC(=O)[C@]56CCC(C)(C)C[C@H]5C5=CC[C@@H]7[C@@]8(C)CC[C@H](O)C(C)(C)[C@@H]8CC[C@@]7(C)[C@]5(C)CC6)nn4)nn3)CC[C@]3(C)C(=CC[C@@H]4[C@@]5(C)CC[C@H](O)C(C)(C)[C@@H]5CC[C@]43C)[C@@H]2C1 | 33.5 µM | > 0.9 | 5.23 µM | Active | >90% | Active | 100% | > 5.74 | 12.9 µM | > 30 µM | 76.88% |  |  | 
CC1(C)CC[C@]2(C(=O)NCCOCCn3cc(COc4cc(C(=O)NCCNC(=O)OCCn5cc(COc6cc(OCc7cn(CCOC(=O)NCCNC(=O)c8cc(OCc9cn(CCOCCNC(=O)[C@]%10%11CCC(C)(C)C[C@H]%10C%10=CC[C@@H]%12[C@@]%13(C)CC[C@H](O)C(C)(C)[C@@H]%13CC[C@@]%12(C)[C@]%10(C)CC%11)nn9)c(OCc9cn(CCOCCNC(=O)[C@]%10%11CCC(C)(C)C[C@H]%10C%10=CC[C@@H]%12[C@@]%13(C)CC[C@H](O)C(C)(C)[C@@H]%13CC[C@@]%12(C)[C@]%10(C)CC%11)nn9)c(OCc9cn(CCOCCNC(=O)[C@]%10%11CCC(C)(C)C[C@H]%10C%10=CC[C@@H]%12[C@@]%13(C)CC[C@H](O)C(C)(C)[C@@H]%13CC[C@@]%12(C)[C@]%10(C)CC%11)nn9)c8)nn7)cc(OCc7cn(CCOC(=O)NCCNC(=O)c8cc(OCc9cn(CCOCCNC(=O)[C@]%10%11CCC(C)(C)C[C@H]%10C%10=CC[C@@H]%12[C@@]%13(C)CC[C@H](O)C(C)(C)[C@@H]%13CC[C@@]%12(C)[C@]%10(C)CC%11)nn9)c(OCc9cn(CCOCCNC(=O)[C@]%10%11CCC(C)(C)C[C@H]%10C%10=CC[C@@H]%12[C@@]%13(C)CC[C@H](O)C(C)(C)[C@@H]%13CC[C@@]%12(C)[C@]%10(C)CC%11)nn9)c(OCc9cn(CCOCCNC(=O)[C@]%10%11CCC(C)(C)C[C@H]%10C%10=CC[C@@H]%12[C@@]%13(C)CC[C@H](O)C(C)(C)[C@@H]%13CC[C@@]%12(C)[C@]%10(C)CC%11)nn9)c8)nn7)c6)nn5)cc(OCc5cn(CCOCCNC(=O)[C@]67CCC(C)(C)C[C@H]6C6=CC[C@@H]8[C@@]9(C)CC[C@H](O)C(C)(C)[C@@H]9CC[C@@]8(C)[C@]6(C)CC7)nn5)c4OCc4cn(CCOCCNC(=O)[C@]56CCC(C)(C)C[C@H]5C5=CC[C@@H]7[C@@]8(C)CC[C@H](O)C(C)(C)[C@@H]8CC[C@@]7(C)[C@]5(C)CC6)nn4)nn3)CC[C@]3(C)C(=CC[C@@H]4[C@@]5(C)CC[C@H](O)C(C)(C)[C@@H]5CC[C@]43C)[C@@H]2C1 | 27.2 µM | > 1.1 | 7.93 µM |  | >90% | Active | 96.5% | > 3.78 |  | > 30 µM | 100% | > 3.2 | Non-Toxic | 9.38 µM
CC1(C)CC[C@]2(C(=O)NCCOCCOCCOCCOCCn3cc(COc4cc(C(=O)NCCNC(=O)OCCn5cc(COc6cc(OCc7cn(CCOC(=O)NCCNC(=O)c8cc(OCc9cn(CCOCCOCCOCCOCCNC(=O)[C@]%10%11CCC(C)(C)C[C@H]%10C%10=CC[C@@H]%12[C@@]%13(C)CC[C@H](O)C(C)(C)[C@@H]%13CC[C@@]%12(C)[C@]%10(C)CC%11)nn9)c(OCc9cn(CCOCCOCCOCCOCCNC(=O)[C@]%10%11CCC(C)(C)C[C@H]%10C%10=CC[C@@H]%12[C@@]%13(C)CC[C@H](O)C(C)(C)[C@@H]%13CC[C@@]%12(C)[C@]%10(C)CC%11)nn9)c(OCc9cn(CCOCCOCCOCCOCCNC(=O)[C@]%10%11CCC(C)(C)C[C@H]%10C%10=CC[C@@H]%12[C@@]%13(C)CC[C@H](O)C(C)(C)[C@@H]%13CC[C@@]%12(C)[C@]%10(C)CC%11)nn9)c8)nn7)cc(OCc7cn(CCOC(=O)NCCNC(=O)c8cc(OCc9cn(CCOCCOCCOCCOCCNC(=O)[C@]%10%11CCC(C)(C)C[C@H]%10C%10=CC[C@@H]%12[C@@]%13(C)CC[C@H](O)C(C)(C)[C@@H]%13CC[C@@]%12(C)[C@]%10(C)CC%11)nn9)c(OCc9cn(CCOCCOCCOCCOCCNC(=O)[C@]%10%11CCC(C)(C)C[C@H]%10C%10=CC[C@@H]%12[C@@]%13(C)CC[C@H](O)C(C)(C)[C@@H]%13CC[C@@]%12(C)[C@]%10(C)CC%11)nn9)c(OCc9cn(CCOCCOCCOCCOCCNC(=O)[C@]%10%11CCC(C)(C)C[C@H]%10C%10=CC[C@@H]%12[C@@]%13(C)CC[C@H](O)C(C)(C)[C@@H]%13CC[C@@]%12(C)[C@]%10(C)CC%11)nn9)c8)nn7)c6)nn5)cc(OCc5cn(CCOCCOCCOCCOCCNC(=O)[C@]67CCC(C)(C)C[C@H]6C6=CC[C@@H]8[C@@]9(C)CC[C@H](O)C(C)(C)[C@@H]9CC[C@@]8(C)[C@]6(C)CC7)nn5)c4OCc4cn(CCOCCOCCOCCOCCNC(=O)[C@]56CCC(C)(C)C[C@H]5C5=CC[C@@H]7[C@@]8(C)CC[C@H](O)C(C)(C)[C@@H]8CC[C@@]7(C)[C@]5(C)CC6)nn4)nn3)CC[C@]3(C)C(=CC[C@@H]4[C@@]5(C)CC[C@H](O)C(C)(C)[C@@H]5CC[C@]43C)[C@@H]2C1 |  |  |  |  |  |  | 99.3% |  |  | > 30 µM | 53.88% |  | Non-Toxic | 
O=C1c2c(O)c(=O)ccn2N([C@@H]2c3ccccc3SCc3c2ccc(F)c3F)[C@@H]2COCCN12 [BALOXAVIR] | 0.07 µM | 137 | 0.009 µM |  |  |  |  | 1650 |  | 9.56 µM |  | 2.53 |  | 3.78 µM
